Measured values published in PMC3608651, “A Broad Profile of Co-Dominant Epitopes Shapes the Peripheral Mycobacterium tuberculosis Specific CD8+ T-Cell Immune Response in South African Patients with Active Tuberculosis” (PLoS ONE, 2013).
Like-named read-outs stand apart in the source and are kept apart here.

Assays:
Assay type in all cases: binding
HLA-A*68:01 = HLA-A*68:01 (Homo sapiens, UniProt P04439, A269V/D185E/E176V/E277Q/E87N/F33Y/G231S/I121M/I166T/I218V/L180W/L300P/L318F/N151K/P208A/P217A/Q86R/R169H/T345S); conditions: percent relative the binding of positive control peptide […]; duplicated experiments; positive binder >40%
HLA-C*07:01 = HLA-C*07:01 (Homo sapiens, UniProt P10321, K90N/S123Y); conditions: percent relative the binding of positive control peptide […]; duplicated experiments; positive binder >40%
HLA-B*58:01 = HLA-B*58:01 (Homo sapiens, UniProt P01889, A329T/C349S/D201E/D98Y/E176V/E187L/E204Q/E69T/G107R/I218V/I90N/K202T/L105A/L119I/N104I/N87E/Q89R/Q94S/R106L/R155S/R180L/R86G/S101N/S121R/S35A/S48A/T118I/V127L/V306I/V36M/Y140S/Y91M); conditions: percent relative the binding of positive control peptide […]; duplicated experiments; positive binder >40%
HLA-A*30:01 = HLA-A*30:01 (Homo sapiens, UniProt P04439, D140H/D185E/E176W/F33S/G80R/H175R/K168Q/R138E/R41S); conditions: percent relative the binding of positive control peptide […]; duplicated experiments; positive binder >40%
HLA-A*02:01 = HLA-A*02:01 (Homo sapiens, UniProt P04439, D140Y/D185E/D98H/E176V/E277Q/G131W/G231S/I119V/I121R/I166T/I218V/L300P/L318F/N151K/N90K/P208A/P217A/Q86G/Q94H/R138H/R169H/T345S); conditions: percent relative the binding of positive control peptide […]; plate-bound monomer 0.5 µg/ml; duplicated experiments; positive binder >40%
HLA-A*24:02 = HLA-A*24:02 (Homo sapiens, UniProt P04439, D101N/D140Y/D185E/E176V/E190D/F33S/G103R/G107R/I119L/I121M/I306V/K335N/L105A/L180Q/L300P/N151K/N90K/Q86E/Q94H/R106L/R138H/R89G/T104I/T345S/V100E/W191G/Y123F)
HLA-B*07:02 = HLA-B*07:02 (Homo sapiens, UniProt P01889); conditions: percent relative the binding of positive control peptide […]; duplicated experiments; positive binder >40%
HLA-A*30:02 = HLA-A*30:02 (Homo sapiens, UniProt P04439, D101N/D140H/D185E/E176R/F33S/G80R/H175R/K168Q/Q94H/R138E/R41S/V100E); conditions: percent relative the binding of positive control peptide […]; duplicated experiments; positive binder >40%
[1] = percent relative the binding of positive control peptide […], duplicated experiments, positive binder >40%

Row | Substance | Bind A*68:01 (HLA-A*68:01) | Bind C*07:01 (HLA-C*07:01) | Bind B*58:01 (HLA-B*58:01) | Bind A*30:01 (HLA-A*30:01) | Bind A*02:01 (HLA-A*02:01) | Bind A*24:02 (HLA-A*24:02; [1]) | Bind B*07:02 (HLA-B*07:02) | Bind A*30:02 (HLA-A*30:02) | Bind A*24:02 (HLA-A*24:02)
1 | GPSLIGLAM | 6% | 0% | 18% | 0% | 11% | 0% | 85% | 0% | –
2 | YHPQQFIYA | 0% | 15% | 9% | 3% | 49% | 0% | 0% | 0% | –
3 | QQIPKLVAN | 2% | 15% | 16% | 10% | 36% | 0% | 2% | 60% | –
4 | NT RLW V Y CG | 0% | 0% | 0% | 27% | 0% | 0% | 0% | 49% | –
5 | PQWLSANRA | 13% | 2% | 0% | 36% | 52% | 75% | 14% | 13% | –
6 | PNGTHSWEY | 9% | 48% | 0% | 0% | 0% | 0% | 8% | 77% | –
7 | LKFQDAYNA | 0% | 53% | 9% | 0% | 17% | 0% | 0% | 91% | –
8 | YYQSGLSIV | 5% | 25% | 0% | 29% | 98% | – | 0% | 37% | 130
9 | MGPSLIGLA | 0% | 14% | 41% | 15% | 68% | 0% | 5% | 0% | –
10 | SGLSIVMPV | 0% | 0% | 0% | 0% | 95% | 0% | 0% | 38% | –
11 | LIGLAMGDA | 0% | 0% | 0% | 0% | 59% | 0% | 0% | 5% | –
12 | SFYSDW YSP | 0% | 0% | 0% | 0% | 7% | 0% | 0% | 77% | –
13 | NAMKGDLQS | 15% | 20% | 0% | 6% | 14% | 45% | 6% | 0% | –
14 | SALLDPSQG | 0% | 9% | 8% | 12% | 0% | 0% | 3% | 62% | –
15 | FYSDW YSPA | 0% | 0% | 0% | 13% | 61% | 10% | 0% | 0% | –
16 | AEFLENFVR | 63% | 13% | 10% | 0% | 12% | 1% | 0% | 0% | –
17 | TSELPQW LS | 0% | 0% | 0% | 0% | 12% | 52% | 14% | 0% | –
18 | SPAVYLLDG | 0% | 1% | 0% | 0% | 0% | 49% | 0% | 0% | –
19 | DGLRAQDDY | 4% | 0% | 0% | 2% | 0% | 0% | 1% | 58% | –
20 | NNTRLW VYC | 4% | 20% | 11% | 19% | 0% | 3% | 4% | 89% | –
21 | MILAAYHPQ | 0% | 4% | 11% | 0% | 56% | 0% | 0% | 82% | –
22 | KGDLQSSLG | 40% | 25% | 0% | 20% | 10% | 4% | 6% | 13% | –
23 | GGYKAADMW | 11% | 0% | 61% | 0% | 0% | 34% | 0% | 0% | –
24 | GGNNSPAVY | 3% | 45% | 0% | 0% | 0% | 0% | 0% | 90% | –
25 | LSIVMPVGG | 0% | 0% | 29% | 0% | 33% | 0% | 0% | 46% | –
26 | PSQGMGPSL | 0% | 29% | 0% | 21% | 39% | 56% | 8% | 16% | –
27 | QQFIYAGSL | 0% | 27% | 8% | 0% | 42% | 0% | 0% | 80% | –
28 | DAYNAAGGH | 64% | 16% | 29% | 8% | 4% | 14% | 12% | 18% | –
29 | PVGGQSSFY | 0% | 0% | 0% | 0% | 0% | 0% | 0% | 82% | –
